These compounds were tested against T1, ALK fusion protein (Homo sapiens, UniProt Q9UM73) (assay: Western blot of ALK fusion protein levels in NCI-H3122 cells). Conditions: NCI-H3122, NCI-H3122 cells, 500 nM, Western blot; read-out: ALK fusion protein degradation, NCI-H3122 (500 nM).
T1 construct: endogenous in cells; host or cells: NCI-H3122; the other entry of the earlier key: EML4 (Q9HC35, Echinoderm microtubule-associated protein-like 4)
Assay type: cell-based
Protocol: SU-DHL-1, NCI-H3122 and NCI-H2228 cells were cultured in RPMI-1640 medium supplemented with 10% fetal bovine serum, 50 μg/mL penicillin and streptomycin. Cells were cultured in a 37° C. incubator with 5% CO2.
Cells were washed with cold PBS once and lysed in 1× Laemmli loading buffer directly. Lysates were heated at 99° C. for […], and resolved on 4-15% precast SDS-PAGE (BIO-RAD) and transferred onto PVDF membrane. Membrane was blocked in 5% milk in Tris-buffered saline and Tween 20 (TBST) for 1 h at room temperature, followed by incubation with a primary antibody overnight at 4° C., and a horseradish peroxidase (HRP)-conjugated secondary antibody for 1 h at room temperature. The membrane was imaged by a ChemiDoc MP imaging system (BIO-RAD). Antibodies against GAPDH (abeam), Phospho-ALK (Tyr1507), ALK (Cell Signaling Technology), Tubulin (Santa Cruz) were purchased commercially. […]

T1 sequence (Q9UM73 with tags, fused parts or gaps): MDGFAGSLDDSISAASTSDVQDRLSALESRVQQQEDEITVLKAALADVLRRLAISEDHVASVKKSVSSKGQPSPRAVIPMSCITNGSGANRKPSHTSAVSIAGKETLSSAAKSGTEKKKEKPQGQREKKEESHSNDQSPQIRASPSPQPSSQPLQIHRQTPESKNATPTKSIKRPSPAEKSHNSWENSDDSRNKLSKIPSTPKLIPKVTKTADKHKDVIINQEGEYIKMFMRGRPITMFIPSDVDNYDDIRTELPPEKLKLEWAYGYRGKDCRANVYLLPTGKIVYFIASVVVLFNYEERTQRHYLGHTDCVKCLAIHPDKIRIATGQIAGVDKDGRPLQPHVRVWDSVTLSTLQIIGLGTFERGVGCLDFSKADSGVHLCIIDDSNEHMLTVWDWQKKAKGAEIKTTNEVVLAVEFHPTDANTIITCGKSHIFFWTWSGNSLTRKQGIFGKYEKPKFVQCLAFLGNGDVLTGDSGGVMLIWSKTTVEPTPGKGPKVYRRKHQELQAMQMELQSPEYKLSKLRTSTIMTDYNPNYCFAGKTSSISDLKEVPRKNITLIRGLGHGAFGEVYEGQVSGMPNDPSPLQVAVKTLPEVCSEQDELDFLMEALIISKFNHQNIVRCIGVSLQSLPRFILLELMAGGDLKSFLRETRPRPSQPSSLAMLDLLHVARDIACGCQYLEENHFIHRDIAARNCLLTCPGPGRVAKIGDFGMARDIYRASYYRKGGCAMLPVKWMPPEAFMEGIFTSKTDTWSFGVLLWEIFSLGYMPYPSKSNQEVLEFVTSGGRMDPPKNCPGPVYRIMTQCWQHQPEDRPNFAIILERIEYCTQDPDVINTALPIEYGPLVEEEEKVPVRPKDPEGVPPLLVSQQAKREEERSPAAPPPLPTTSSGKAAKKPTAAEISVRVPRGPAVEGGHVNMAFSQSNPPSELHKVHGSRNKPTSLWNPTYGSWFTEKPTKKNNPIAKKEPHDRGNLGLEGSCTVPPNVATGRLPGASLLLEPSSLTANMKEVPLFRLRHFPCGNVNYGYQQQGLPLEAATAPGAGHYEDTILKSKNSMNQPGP

SMILES	Dmax at 0.5 µM [%]
Cc1cc(Nc2ncc(Cl)c(Nc3ccccc3S(=O)(=O)C(C)C)n2)c(OC(C)C)cc1C1CCN(C(=O)CNc2cccc3c2C(=O)N(C2CCC(=O)NC2=O)C3=O)CC1 (stereo not shown) [CZ47-01, 4-((2-(4-(4-((5-Chloro-4-((2-(isopropylsulfonyl)phenyl)amino)pyrimidin-2-yl)amino)-5-isopropoxy-2-methylphenyl)piperidin-1-yl)-2-oxoethyl)amino)-2-(2,6-dioxopiperidin-3-yl)isoindoline-1,3-dione]	< 20
Cc1cc(Nc2ncc(Cl)c(Nc3ccccc3S(=O)(=O)C(C)C)n2)c(OC(C)C)cc1C1CCN(C(=O)CCOCCOCCNc2cccc3c2C(=O)N(C2CCC(=O)NC2=O)C3=O)CC1 (stereo not shown) [CZ47-09, 4-((2-(2-(3-(4-(4-((5-Chloro-4-((2-(isopropylsulfonyl)phenyl)amino)pyrimidin-2-yl)amino)-5-isopropoxy-2-methylphenyl)piperidin-1-yl)-3-oxopropoxy)ethoxy)ethyl)amino)-2-(2,6-dioxopiperidin-3-yl)isoindoline-1,3-dione]	> 80
Cc1cc(Nc2ncc(Cl)c(Nc3ccccc3S(=O)(=O)C(C)C)n2)c(OC(C)C)cc1C1CCN(C(=O)CCOCCOCCOCCNc2cccc3c2C(=O)N(C2CCC(=O)NC2=O)C3=O)CC1 (stereo not shown) [CZ47-10, 4-((2-(2-(2-(3-(4-(4-((5-Chloro-4-((2-(isopropylsulfonyl)phenyl)amino)pyrimidin-2-yl)amino)-5-isopropoxy-2-methylphenyl)piperidin-1-yl)-3-oxopropoxy)ethoxy)ethoxy)ethyl)amino)-2-(2,6-dioxopiperidin-3-yl)isoindoline-1,3-dione]	< 20
Cc1cc(Nc2ncc(Cl)c(Nc3ccccc3S(=O)(=O)C(C)C)n2)c(OC(C)C)cc1C1CCN(C(=O)CCOCCOCCOCCOCCNc2cccc3c2C(=O)N(C2CCC(=O)NC2=O)C3=O)CC1 (stereo not shown) [CZ47-11, 4-((15-(4-(4-((5-Chloro-4-((2-(isopropylsulfonyl)phenyl)amino)pyrimidin-2-yl)amino)-5-isopropoxy-2-methylphenyl)piperidin-1-yl)-15-oxo-3,6,9,12-tetraoxapentadecyl)amino)-2-(2,6-dioxopiperidin-3-yl)isoindoline-1,3-dione]	20 to 80
Cc1cc(Nc2ncc(Cl)c(Nc3ccccc3S(=O)(=O)C(C)C)n2)c(OC(C)C)cc1C1CCN(C(=O)CCOCCOCCOCCOCCOCCNc2cccc3c2C(=O)N(C2CCC(=O)NC2=O)C3=O)CC1 (stereo not shown) [CZ47-12, 4-((18-(4-(4-((5-Chloro-4-((2-(isopropylsulfonyl)phenyl)amino)pyrimidin-2-yl)amino)-5-isopropoxy-2-methylphenyl)piperidin-1-yl)-18-oxo-3,6,9,12,15-pentaoxaoctadecyl)amino)-2-(2,6-dioxopiperidin-3-yl)isoindoline-1,3-dione]	20 to 80
Cc1cc(Nc2ncc(Cl)c(Nc3ccccc3S(=O)(=O)C(C)C)n2)c(OC(C)C)cc1C1CCN(C(=O)COCC(=O)N[C@H](C(=O)N2C[C@H](O)C[C@H]2C(=O)NCc2ccc(-c3scnc3C)cc2)C(C)(C)C)CC1 [CZ47-13, (2S,4R)-1-((S)-2-(2-(2-(4-(4-((5-Chloro-4-((2-(isopropylsulfonyl)phenyl)amino)pyrimidin-2-yl)amino)-5-isopropoxy-2-methylphenyl)piperidin-1-yl)-2-oxoethoxy)acetamido)-3,3-dimethylbutanoyl)-4-hydroxy-N-(4-(4-methylthiazol-5-yl)benzyl)pyrrolidine-2-carboxamide]	20 to 80

The next lines start with the values.

Dmax at 0.5 µM [%]	SMILES
20 to 80	Cc1cc(Nc2ncc(Cl)c(Nc3ccccc3S(=O)(=O)C(C)C)n2)c(OC(C)C)cc1C1CCN(C(=O)CCNc2cccc3c2C(=O)N(C2CCC(=O)NC2=O)C3=O)CC1 (stereo not shown) [CZ47-02, 4-((3-(4-(4-((5-Chloro-4-((2-(isopropylsulfonyl)phenyl)amino)pyrimidin-2-yl)amino)-5-isopropoxy-2-methylphenyl)piperidin-1-yl)-3-oxopropyl)amino)-2-(2,6-dioxopiperidin-3-yl)isoindoline-1,3-dione]
20 to 80	Cc1cc(Nc2ncc(Cl)c(Nc3ccccc3S(=O)(=O)C(C)C)n2)c(OC(C)C)cc1C1CCN(C(=O)CCCNc2cccc3c2C(=O)N(C2CCC(=O)NC2=O)C3=O)CC1 (stereo not shown) [CZ47-03, 4-((4-(4-(4-((5-Chloro-4-((2-(isopropylsulfonyl)phenyl)amino)pyrimidin-2-yl)amino)-5-isopropoxy-2-methylphenyl)piperidin-1-yl)-4-oxobutyl)amino)-2-(2,6-dioxopiperidin-3-yl)isoindoline-1,3-dione]
20 to 80	Cc1cc(Nc2ncc(Cl)c(Nc3ccccc3S(=O)(=O)C(C)C)n2)c(OC(C)C)cc1C1CCN(C(=O)CCCCNc2cccc3c2C(=O)N(C2CCC(=O)NC2=O)C3=O)CC1 (stereo not shown) [CZ47-04, 4-((5-(4-(4-((5-Chloro-4-((2-(isopropylsulfonyl)phenyl)amino)pyrimidin-2-yl)amino)-5-isopropoxy-2-methylphenyl)piperidin-1-yl)-5-oxopentyl)amino)-2-(2,6-dioxopiperidin-3-yl)isoindoline-1,3-dione]
< 20	Cc1cc(Nc2ncc(Cl)c(Nc3ccccc3S(=O)(=O)C(C)C)n2)c(OC(C)C)cc1C1CCN(C(=O)CCCCCNc2cccc3c2C(=O)N(C2CCC(=O)NC2=O)C3=O)CC1 (stereo not shown) [CZ47-05, 4-((6-(4-(4-((5-Chloro-4-((2-(isopropylsulfonyl)phenyl)amino)pyrimidin-2-yl)amino)-5-isopropoxy-2-methylphenyl)piperidin-1-yl)-6-oxohexyl)amino)-2-(2,6-dioxopiperidin-3-yl)isoindoline-1,3-dione]
< 20	Cc1cc(Nc2ncc(Cl)c(Nc3ccccc3S(=O)(=O)C(C)C)n2)c(OC(C)C)cc1C1CCN(C(=O)CCCCCCNc2cccc3c2C(=O)N(C2CCC(=O)NC2=O)C3=O)CC1 (stereo not shown) [CZ47-06, 4-((7-(4-(4-((5-Chloro-4-((2-(isopropylsulfonyl)phenyl)amino)pyrimidin-2-yl)amino)-5-isopropoxy-2-methylphenyl)piperidin-1-yl)-7-oxoheptyl)amino)-2-(2,6-dioxopiperidin-3-yl)isoindoline-1,3-dione]
20 to 80	Cc1cc(Nc2ncc(Cl)c(Nc3ccccc3S(=O)(=O)C(C)C)n2)c(OC(C)C)cc1C1CCN(C(=O)CCCCCCCNc2cccc3c2C(=O)N(C2CCC(=O)NC2=O)C3=O)CC1 (stereo not shown) [CZ47-07, 4-((8-(4-(4-((5-Chloro-4-((2-(isopropylsulfonyl)phenyl)amino)pyrimidin-2-yl)amino)-5-isopropoxy-2-methylphenyl)piperidin-1-yl)-8-oxooctyl)amino)-2-(2,6-dioxopiperidin-3-yl)isoindoline-1,3-dione]
> 80	Cc1cc(Nc2ncc(Cl)c(Nc3ccccc3S(=O)(=O)C(C)C)n2)c(OC(C)C)cc1C1CCN(C(=O)CCOCCNc2cccc3c2C(=O)N(C2CCC(=O)NC2=O)C3=O)CC1 (stereo not shown) [CZ47-08, 4-((2-(3-(4-(4-((5-Chloro-4-((2-(isopropylsulfonyl)phenyl)amino)pyrimidin-2-yl)amino)-5-isopropoxy-2-methylphenyl)piperidin-1-yl)-3-oxopropoxy)ethyl)amino)-2-(2,6-dioxopiperidin-3-yl)isoindoline-1,3-dione]
